Measured values published in US20210346354A1, “MACROPINOCYTOSIS IN CANCER” (Memorial Sloan-Kettering Cancer Center, priority 2015, published 2021).

How the values were obtained:
Type in all cases: cell-based, mouse
wild type MEFs = assay: Lysosomal degradation of DQ-BSA in wild type MEFs; conditions: 250 nM torin 1; 6 h DQ-BSA uptake
Method: (§1) For live imaging, medium was supplemented with 0.3 mg/ml DQ Green BSA. 1 h prior to imaging, 50 nM LysoTracker Red and 0.2 μg/ml Hoechst were added. Cells were imaged either immediately after addition of DQ-BSA and torin 1, or after 5-6 h incubation using a Zeiss LSM 5 LIVE.
To further investigate how Ras and mTORC1 signaling regulated lysosomal proteolysis of internalized proteins, the effects of mTORC1 inhibition and K-Ras activation were compared. […] Thus, K-Ras enhances a cell's ability to take up and degrade extracellular proteins. In contrast, whereas mTORC1 specifically restricts their lysosomal degradation.

K-Ras^G12D MEFs [1] = assay: 14C-leucine labeling of proteins and lipids; conditions: mean±STDEV (n=3); control cells 364±69
Method: Cells were cultured in full medium containing 0.5 μCi (0.4%) L-[^14C(U)]-Leucine (Perkin Elmer) for 24 h. Total lipid and protein fractions were isolated essentially according to the Blight-Dyer method (Bligh and Dyer, 1959). Protein pellets were resolubilized in 6 M guanidine hydrochloride, then transferred to scintillation fluid. Organic phase-dissolved lipids were transferred to scintillation vials, and after solvent evaporation, resuspended in scintillation fluid. ^14C-leucine content of proteins and lipids was quantified by scintillation counting.

K-Ras^G12D MEFs [2] = assay: Lysosomal degradation of DQ-BSA (fluorescence dequenching) in K-Ras^G12D MEFs
Method: as §1
To characterize how cells derive leucine from extracellular proteins, cellular albumin uptake was investigated using constitutively fluorescent albumin and intracellular albumin proteolysis using a self-quenched albumin that emits fluorescence upon degradation (DQ-BSA) (Reis et al., 1998). […] It was then determined whether lysosomal albumin degradation was required to support growth during leucine starvation. […] Ras GTPases can promote cellular uptake of macromolecules through macropinocytosis (Bar-Sagi and Feramisco, 1986). […] To investigate whether this endocytic pathway contributed to albumin-dependent growth, cells were treated with the Na^+/H^+ exchange inhibitor EIPA, which blocks macropinocytosis but not other endocytic pathways (West et al., 1989).
To distinguish these possibilities, it was first tested whether mTORC1 inhibition increased internalization of extracellular macromolecules. […] It was next examined whether mTORC1 inhibition affected lysosomal degradation of internalized proteins.

K-Ras^G12D MEFs [3] = assay: Proliferation assay (cell numbers) of K-Ras^G12D MEFs in starvation medium
Method: Cell culture experiments were performed at 37° C. and 5% CO2 in DMEM/F12 with 10% dialyzed FBS (molecular weight cut-off 10,000; Gemini Biosystems), 100 U/mL penicillin, 100 μg/mL streptomycin, 5 mM glucose and 2 mM glutamine. For proliferation assays, MEFs were plated in complete medium, 5 h later briefly rinsed and then cultured in starvation medium as indicated. For EAA titration experiments, EAAs were supplemented at indicated percentages of 1×MEM amino acid solution (M5550, Sigma). Cancer cell lines were cultured in complete medium for 1 day prior to starvation. Numbers of adherent cells, which are >95% viable as assessed by Trypan Blue exclusion were determined using a Multisizer 4 Coulter Counter (Beckman). For mTOR activation and localization experiments, cells were rinsed and then incubated in EAA starvation medium (DMEM/F12 lacking all amino acids except glutamine) for 1 h, and subsequently placed in medium supplemented with EAAs (1×MEM amino acid solution), albumin (3%, if not stated otherwise) or fresh EAA-free starvation medium for indicated periods of time.

CCC(=O)N1CCN(c2ccc(-n3c(=O)ccc4cnc5ccc(-c6cnc7ccccc7c6)cc5c43)cc2C(F)(F)F)CC1 [torin 1]
DQ-BSA fluorescence (wild type MEFs): significant increase | ratio of protein to lipid incorporation of 14C-leucine label (K-Ras^G12D MEFs [1]): 203±27 | DQ-BSA proteolysis, torin 1 combined with constitutive K-Ras activation (K-Ras^G12D MEFs [2]; 250 nM torin 1, 6 h DQ-BSA uptake, versus either manipulation alone): almost four times more than either manipulation alone | fluorescence dequenching of DQ-BSA (K-Ras^G12D MEFs [2]; 250 nM torin 1, followed over time): dramatic increase | rate of DQ-BSA degradation after torin 1 pre-treatment (K-Ras^G12D MEFs [2]; pre-treating with 250 nM torin 1 for 6 h or 16 h): did not increase the rate of DQ-BSA degradation | cell proliferation (K-Ras^G12D MEFs [3]; 3% albumin, EAAs abundant extracellularly, 250 nM torin 1, day 3): strongly decreased cell proliferation | cell proliferation (K-Ras^G12D MEFs [3]; 3% albumin, low EAA concentrations, 250 nM torin 1, day 3): significantly improved cell proliferation | cell proliferation (K-Ras^G12D MEFs [3]; 3% albumin, over a 10-fold range of EAA concentrations, 250 nM torin 1): only slightly reduced proliferation | cell proliferation (K-Ras^G12D MEFs [3]; free leucine provided extracellularly, increasing doses of torin 1, day 3): decreased with increasing doses | cell proliferation (K-Ras^G12D MEFs [3]; leucine-free medium +3% albumin, torin 1 raised from 50 to 300 nM): progressively improved cell proliferation | cell proliferation (K-Ras^G12D MEFs [3]; medium lacking isoleucine, lysine or arginine, 3% albumin, 250 nM torin 1): induced cells to robustly proliferate
